This experiment has as its target AzoA (Enterococcus faecalis, UniProt Q831B2). The experiment is described as follows: spectroscopy of purified protein, FMN to protein molar ratio. Type of experiment: binding. Particulars: co-purified flavin; two sites per homodimer.

AzoA, sequence (Q831B2 whole entry): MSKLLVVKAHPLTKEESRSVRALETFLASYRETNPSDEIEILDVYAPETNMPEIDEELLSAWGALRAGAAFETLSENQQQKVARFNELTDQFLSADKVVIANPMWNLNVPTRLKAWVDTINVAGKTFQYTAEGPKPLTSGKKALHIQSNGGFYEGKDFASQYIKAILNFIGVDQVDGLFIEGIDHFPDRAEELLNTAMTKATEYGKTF

On to `Cc1cc2nc3c(=O)[nH]c(=O)nc-3n(C[C@H](O)[C@H](O)[C@H](O)COP(=O)(O)O)c2cc1C` [FMN], for which the “spectroscopy of purified protein, FMN to protein molar ratio” value was “suggesting that two FMN molecules bind to an AzoA (wild-type and mutants)”.

These data come from article PMC5704035 (Biochemistry and Biophysics Reports, 2017).
